Substitutions are numbered along the chain they refer to.
How the values were obtained:
Assay type in all cases: cell-based
Details in all cases: Cos-7, mean±s.e.m., read-out: pEC50 mutant (converted)
[1] = target: T1, CT(a) receptor, W79A mutant (Homo sapiens, UniProt P30988, W79A); experiment: cAMP assay, W79A CT(a)
T1 sequence (P30988 25-474 W79A): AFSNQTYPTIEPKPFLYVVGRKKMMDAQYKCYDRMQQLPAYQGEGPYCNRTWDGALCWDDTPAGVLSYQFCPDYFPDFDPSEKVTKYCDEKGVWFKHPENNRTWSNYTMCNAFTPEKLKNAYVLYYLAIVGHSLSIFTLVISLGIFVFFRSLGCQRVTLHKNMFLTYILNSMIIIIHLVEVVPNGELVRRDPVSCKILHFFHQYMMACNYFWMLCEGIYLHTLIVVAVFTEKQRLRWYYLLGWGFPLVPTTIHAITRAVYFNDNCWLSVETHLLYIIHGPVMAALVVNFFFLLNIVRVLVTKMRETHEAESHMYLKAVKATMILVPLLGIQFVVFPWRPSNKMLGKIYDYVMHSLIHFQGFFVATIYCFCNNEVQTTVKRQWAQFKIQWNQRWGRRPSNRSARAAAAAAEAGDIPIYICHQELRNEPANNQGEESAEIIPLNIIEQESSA
Description: (§1) This is the insert-negative form of the receptor and is referred to as hCT(a), to comply with International Union of Pharmacology guidelines. Myc tagged RAMP1 and untagged RAMP3 constructs were used for AMY receptor experiments.
(§2) Primers were purchased from Integrated DNA Technologies Ltd (Coralville, IA, USA). Kapa HiFi readymix (Kapa Biosystems, Wilmington, MA, USA) or Primestar HS enzymes (TaKaRa Bio, Kyoto, Japan) were substituted for Pfu polymerase.
(§3) After stimulation the reaction was stopped by removing media and adding 50 μl per well of ice-cold absolute ethanol. Plates were stored at −30 °C for up to 4 days before the measurement of cAMP was performed.

[2] = target: T2, CT(a) receptor, F99A mutant (Homo sapiens, UniProt P30988, F99A); experiment: cAMP assay, F99A CT(a)
T2 sequence (P30988 25-474 F99A): T1 sequence (P30988 25-474 W79A) with A55W, F75A
Description: as §1, §2, §3

[3] = target: T3, CT(a) receptor, F102A mutant (Homo sapiens, UniProt P30988, F102A); experiment: cAMP assay, F102A CT(a)
T3 sequence (P30988 25-474 F102A): T1 sequence (P30988 25-474 W79A) with A55W, F78A
Description: as §1, §2, §3

[4] = target: T4, CT(a) receptor, H121A mutant (Homo sapiens, UniProt P30988, H121A); experiment: cAMP assay, H121A CT(a)
T4 sequence (P30988 25-474 H121A): T1 sequence (P30988 25-474 W79A) with A55W, H97A
Description: as §1, §2, §3

[5] = target: T5, CT(a) receptor, R126A mutant (Homo sapiens, UniProt P30988, R126A); experiment: cAMP assay, R126A CT(a)
T5 sequence (P30988 25-474 R126A): T1 sequence (P30988 25-474 W79A) with A55W, R102A
Description: as §1, §2, §3

EC50 [1]: 447 nM
EC50 [3]: 501 nM
EC50 [4]: 263 nM
EC50 [5]: 20.9 nM
SMILES: CC(C)C[C@H](NC(=O)CNC(=O)[C@H](C)NC(=O)[C@H](CC(C)C)NC(=O)[C@H](CCCNC(=N)N)NC(=O)[C@H](Cc1cnc[nH]1)NC(=O)[C@@H](NC(=O)[C@@H](NC(=O)[C@@H]1CSSC[C@H](NC(=O)[C@H](C)N)C(=O)N[C@@H](CC(=O)O)C(=O)N[C@@H]([C@@H](C)O)C(=O)N[C@@H](C)C(=O)N[C@@H]([C@@H](C)O)C(=O)N1)C(C)C)[C@@H](C)O)C(=O)N[C@@H](CC(C)C)C(=O)N[C@@H](CO)C(=O)N[C@@H](CCCNC(=N)N)C(=O)N[C@@H](CO)C(=O)NCC(=O)NCC(=O)N[C@H](C(=O)N[C@H](C(=O)N[C@@H](CCCCN)C(=O)N[C@@H](CC(N)=O)C(=O)N[C@@H](CC(N)=O)C(=O)N[C@@H](Cc1ccccc1)C(=O)N[C@H](C(=O)N1CCC[C@H]1C(=O)N[C@H](C(=O)N[C@@H](CC(N)=O)C(=O)N[C@H](C(=O)NCC(=O)N[C@@H](CO)C(=O)N[C@@H](CCCCN)C(=O)N[C@@H](C)C(=O)N[C@@H](Cc1ccccc1)C(N)=O)C(C)C)[C@@H](C)O)C(C)C)C(C)C)C(C)C [hαCGRP, human αCGRP]
